The numbers were not newly measured in patent publication EP4578905A1, “COMPOSITION, PREPARATION METHOD THEREFOR, AND USE THEREOF” (Bloomage Biotechnology Corporation Limited, priority 2022, dated 2024), which cites them from elsewhere.

The structures appear in SMILES notation. Like-named read-outs stand apart in the source and are kept apart here.

As to `NCCCC(=O)O` [γ-aminobutyric acid], the “dissociation constant pK” value runs as follows: (first pK printed) 4.03; (second pK printed) 10.56.
